The values that follow come from patent US9119808B1, “Treating neurodegenerative diseases with GGA or a derivative thereof” (COYOTE PHARMACEUTICALS, INC., priority 2012, dated 2015).

Data set [1] has as its system HSP70 expression in Neuro2A cells. The experiment in a line: HSP70 expression by Western blot in treated Neuro2A cells (Assay 1a/1b). In kind it is cell-based, murine. As to conditions: for HSP70 Expression, HSP70 by Western Blot: Neuro2A cells, Assay 1a screen at 1 μM. The protocol:
HSP70 expression in neuro2A cells treated with CNS-102 analogs are examined, using Western blot analysis. An increased expression of HSP70 will indicate the candidate molecule has the prerequisite activity. This assay has a Z factor of […] and a CV of 11% for CNS-102 at 1 nM to 100 nM.
A preliminary screen and quantitative performance evaluation, and a confirmatory neuroprotective assay are developed from a model of motor neuron dysfunction in a PNS cell line.
The overall strategy, therefore, is to use a sequence of assays, each of which is targeted to address a specific aspect of the disease with the goal of identifying candidates having multiple therapeutic capabilities. These assays are chosen such that a failure to perform at any stage is expected to be fatal to the candidate's suitability as a viable ALS treatment. To this end, the following four therapeutic capabilities and corresponding assays were chosen as shown in the list below. The advancement criteria, as well as assay design where relevant, are also presented. • 1. In some embodiments, the candidates increase HSP70 expression in target cells. The initial screen (pass/fail, Assay 1a) and quantitative evaluation (EC50, Assay 1b) of candidates will use a HSP70 expression assay by Western blot on cellular extracts of treated Neuro2A cells. The screen, Assay 1a, is conducted at a single concentration, requiring a specific level of activity to pass into Assay 1b, the quantitative dose/response determination of the EC50. Only those candidates having an ECK, below 10 nM would be promoted to Assay 2. • 2. In some embodiments, the candidates increase neuronal cell health/growth in the presence of specific inhibitors of GGTase I. The ability of candidates to promote neurite extension will be measured on Neuro2A cells to model whole-cell activities important to synaptic connections and neuronal function. […] Neuroprotection afforded by candidates that have passed the first two assays will be determined on rat hippocampal neurons facing kainic acid induced damage. […] This confirmation will be determined in the SOD1 mouse model.

For data set [2], the system named is neuro2A neuroblastoma cell lines. Description: Neurite outgrowth in Neuro2A cells challenged with GGTase I inhibitor GGTI-298 (Assay 2). In kind it is cell-based, murine. As to conditions: @ 10 nM, GGTI-298 challenge. As to the method:
Neurite outgrowth in neuro2A neuroblastoma cell lines has been widely used as a cellular model for compounds screening in the CNS drug discovery and research. IN some embodiments, the effects of CNS-102 analogs on neurite outgrowth is determined. Cells will be pre-treated with candidates and then subjected to a challenge with GGTase I inhibitor GGTI-298. Retinoic Acid will be added to start the differentiation of these cells. This will identify analogs that protect neurite outgrowth, which is known to be important for establishing synaptic connections and neuronal functions. This assay has a Z factor of 0.4 and a CV of 11% for CNS-102 at 10 nM to 1 μM.
(§1) The overall strategy, therefore, is to use a sequence of assays, each of which is targeted to address a specific aspect of the disease with the goal of identifying candidates having multiple therapeutic capabilities. These assays are chosen such that a failure to perform at any stage is expected to be fatal to the candidate's suitability as a viable ALS treatment. To this end, the following four therapeutic capabilities and corresponding assays were chosen as shown in the list below. The advancement criteria, as well as assay design where relevant, are also presented. • 1. In some embodiments, the candidates increase HSP70 expression in target cells. The initial screen (pass/fail, Assay 1a) and quantitative evaluation (EC50, Assay 1b) of candidates will use a HSP70 expression assay by Western blot on cellular extracts of treated Neuro2A cells. The screen, Assay 1a, is conducted at a single concentration, requiring a specific level of activity to pass into Assay 1b, the quantitative dose/response determination of the EC50. Only those candidates having an ECK, below 10 nM would be promoted to Assay 2. • 2. In some embodiments, the candidates increase neuronal cell health/growth in the presence of specific inhibitors of GGTase I. The ability of candidates to promote neurite extension will be measured on Neuro2A cells to model whole-cell activities important to synaptic connections and neuronal function. Candidates showing >200 cells with outgrowth would be promoted to Assay 3. • 3. In some embodiments, the candidates provide protection to nerve tissue from excitotoxins. Neuroprotection afforded by candidates that have passed the first two assays will be determined on rat hippocampal neurons facing kainic acid induced damage. This is the final animal model before the ALS disease model and candidates that provide >50% protection would be tested in the disease model. • 4. In some embodiments, the candidates increase median survival time by 25% and improve neurological performance compared to control. This confirmation will be determined in the SOD1 mouse model.

A further data set concerns rat hippocampal neurons. Description: Rat neuroprotection model, kainic acid induced excitotoxic neuron loss in hippocampus (Assay 3). The data set is classed as in vivo. The conditions noted are these: for Rat Neuroprotection, % Protection: kainic acid rat model, 2 or 20 mg/kg. The protocol:
Excitotoxicity has been considered as one of the major causes for neuron loss in ALS. A probable cause for excitotoxic neuron death is excess glutamate around the synapses, due to impaired glutamate reuptake capabilities. Intra-cerebral infusion of kainic acid is a well-established and robust model for excitotoxic neuron death that has been used to investigate excitotoxicity for over fifty years. Compounds are tested, e.g., at two concentrations and compare to a vehicle control in a model that quantifies neuron loss in the CA3 area of the hippocampus. Such tests can evaluate blood brain barrier penetration and select compounds that provide neuroprotection from excitotoxic damage.
as §1

The test system of the next data set is SOD1 mouse model of ALS. Description: SOD1 mouse model of ALS: survival and cat-walk gait (Assay 4). In kind it is in vivo. As to conditions: for Run Duration, CNS-102-vehicle difference of averages / Stride Length, CNS-102-vehicle difference of averages / Swing Speed, CNS-102-vehicle difference of averages: cat-walk. As to the method:
Analyses were conducted using PROC LIFEREG in SAS.
Additionally, three neurological function outcomes were chosen for analysis from those measured on a ‘cat-walk’ at irregular intervals over the duration of the study; stride length (cm), run duration (s), and swing speed (cm/s).
This non-random censoring of the treatment group data precluded using standard comparative statistical methods such as the t-test due the unverifiable compliance of the remaining data with required statistical test assumptions. Consequently, a Monte Carlo estimate of the p-value of the treatment differences was constructed using the bootstrap method.
Survival studies and behavioral tests will be performed in the SOD1 G93A model of ALS. This transgenic mouse harbors a point mutation (G93A), found in familial ALS, in the gene encoding for superoxide dismutase 1 (SOD1). This very well characterized mouse model is widely used in ALS research. […] Motor neuron death in the ventral horn of the spinal cord and loss of myelinated axons in the ventral motor roots lead to paralysis and muscle wasting. Mice initially develop normally and gain weight until approximately 100 days of age. At this point, weight loss (which is usually defined as the onset of disease), muscle weakness, and gradual paralysis start at the hind limbs and muscle wasting start to appear. […] This means that drug efficacy studies using this model can be performed within a relatively short time frame of 4-5 months. To rigorously test the efficacy of candidates in this mouse model, neurological scores are monitored, and motor scores, life span, body weight and mice tested in a battery of behavioral paradigms suitable for motor assessment.

The target of a further data set is GGTase I (Homo sapiens, UniProt P53609). The experiment in a line: GGTase I activity detected by fluorescent peptide dansyl-GCVLL. The data set is classed as biochemical.
A further data set in a line: Water solubility. The data set is classed as physicochemical. An excerpt: The chemical structure of CNS-102 is shown. We have characterized CNS-102 (MW 330) by ^1H NMR, LC, and ESI mass spectrometry and no evidence of cis isomer was found. […] Such can enable CNS-102 to cross the blood brain barrier.
Data set [3] is described as follows: Bioavailability and brain penetration. As to conditions: in vivo.
For a further data set, the system named is SOD1 G93A. As to conditions: pre-symptomatic administration or treatment at disease onset; cited from earlier work.
The test system of another data set is cultured spinal neurons. As to conditions: low concentration (1 nM-100 nM); cited from earlier work.

For the compound `CC(=O)CC/C=C(\C)CC/C=C(\C)CC/C=C(\C)CCC=C(C)C` [CNS-102, 5E,9E,13E-geranylgeranylacetone], the “expression of HSPs” value in data set [1] (murine Neuro2A cells, HSP70 and HSP90 found) was “increases expression of HSPs”. Also, in [2], the “Neurite Outgrowth, Cell count relative to negative control” value came to 2.00. Besides, the “time of peak protection” value in the data set with rat hippocampal neurons (hippocampus, locally injected kainic acid, following a single oral dose) was determined as 72 h. Besides, the “Rat Neuroprotection, % Protection” value in the data set on rat hippocampal neurons turned out to be 40%. Besides, the “expression of HSPs” value with rat hippocampal neurons (rat kainic acid induced neurotoxicity model, HSP70 in hippocampus and cerebral cortex, HSP60, HSP70, HSP90 upregulated) was “increases expression of HSPs”. In the data set on SOD1 mouse model of ALS (SOD1 mouse model), the “SOD1 Mouse Model, Survival and clinical scores: increase in survival” value is 9% increase. Moreover, the “Increase over vehicle (median survival time)” value in the data set with SOD1 mouse model of ALS (SOD1 mouse model, daily treatments, N=16/treatment) is 9%. The “improvement in median survival, CNS-102 outperformed riluzole by” value with SOD1 mouse model of ALS (SOD1 mouse model, difference between drug groups not statistically significant at p=0.05) turned out to be 50%. Moreover, in the data set on SOD1 mouse model of ALS (age P120 ± 1), the “Run Duration, CNS-102-vehicle difference of averages” value is -1.68 s; the “Stride Length, CNS-102-vehicle difference of averages” value was determined as 1.46 cm; the “Swing Speed, CNS-102-vehicle difference of averages” value is 14.58 cm/s. In addition, in the data set on SOD1 mouse model of ALS (age P124 ± 3), the “Run Duration, CNS-102-vehicle difference of averages” value is -1.49 s; the “Stride Length, CNS-102-vehicle difference of averages” value is reported as 1.87 cm; the “Swing Speed, CNS-102-vehicle difference of averages” value was found to be 11.70 cm/s. For the same compound, at GGTase I, the “GGTase I activity” value is reported as “modulates GGTase I activity”. The intrinsic water solubility result in “Water solubility” was “little intrinsic water solubility”. Moreover, the “bioavailability and brain penetration” value in data set [3] is “excellent”.

Take `CC/C(=C\CCC(=O)C12CC3CC(CC(C3)C1)C2)CC/C=C(\C)CC/C=C(\C)CCC=C(C)C` [CNS-G001]: the “HSP70 Expression, HSP70 by Western Blot” value in data set [1] is on record as 2.00 × PBS. For the same compound, the “Neurite Outgrowth, Cell count relative to negative control” value in data set [2] is listed as 1.79. In addition, the “Rat Neuroprotection, % Protection” value with rat hippocampal neurons is given as 37%.

Consider `CCCCCNC(=O)OC(C)CC/C=C(\C)CC/C=C(\C)CCC=C(C)C` (stereo not drawn) [CNS-G002], for which the “Neurite Outgrowth, Cell count relative to negative control” value in data set [2] stood at 1.79.

In the case of `CC(=O)CC/C=C(\C)CC/C=C(\C)CC/C=C(\C)CC/C=C(\C)CCC=C(C)C` [CNS-G003], in [2], the “Neurite Outgrowth, Cell count relative to negative control” value is 2.74. Also, the “Rat Neuroprotection, % Protection” value in the data set on rat hippocampal neurons stood at 82%.

Regarding `CC(C)=CCC/C(C)=C/CC/C(C)=C/CC/C(C)=C/COC(=O)C1CCCCC1` [CNS-G004], in data set [2], the “Neurite Outgrowth, Cell count relative to negative control” value stood at 2.61. In addition, in the data set with rat hippocampal neurons, the “Rat Neuroprotection, % Protection” value amounted to 76%.

With `CC(C)=CCC/C(C)=C/CC/C(C)=C/CC/C(C)=C/CC1CCCCC1=O` (stereo not drawn) [CNS-G005], the “HSP70 Expression, HSP70 by Western Blot” value in [1] is 2.78 × PBS. In addition, the “Neurite Outgrowth, Cell count relative to negative control” value in [2] is 2.28. In addition, in the data set with rat hippocampal neurons, the “Rat Neuroprotection, % Protection” value was 83%.

As for `[O-][n+]1cccc(/C(Cl)=N/OC[C@H](O)CN2CCCCC2)c1` [arimoclomol], in the data set with SOD1 G93A, the “extension of life span” value is given as “approximately 5 weeks”.

For the compound geranylgeranyl acetone [GGA], in the data set with cultured spinal neurons, the “proteasome inhibitor induced neurotoxicity” value is “reduce proteasome inhibitor induced neurotoxicity”.
